Data published in patent publication US20190175534A1, “PHARMACEUTICAL COMPOSITIONS COMPRISING DGLA AND USE OF SAME” (DS Biopharma Limited, priority 2016, published 2019).

What was measured:
[1] = parameters: species or system human; settings: in vivo, po
Procedure: A single-center, double-blind, randomized, placebo-controlled, two part Phase one study was performed in healthy male and female subjects aged 18 to 45 years inclusive. The primary objective of this study was to assess the safety and plasma pharmacokinetics (PK) of orally administered single doses and orally administered multiple doses of DS107G capsules (once daily for 28 days) in healthy subjects.
Subjects were randomly assigned in a 3:1 ratio of DG107G to placebo by block randomization. Single dose part one of the study comprised three cohorts of eight subjects each, with the addition of Cohort four based on evaluation of the safety data of Cohort three by the Safety Monitoring Committee (SMC). A single oral dose of DS107G or matching placebo was administered to fasted subjects in Cohorts one to three (500, 1000, and 2000 mg, respectively) in parallel; subjects in Cohort four were administered a dose of 4000 mg following completion of Cohort three. Subjects in Cohort two received 1000 mg or matching placebo in the fed state at ≥14 days after the first dose.
Safety assessments were monitored throughout the study.
In Part one of the study, subjects in Cohorts one to three were administered a single dose of study drug (either 500-, 1000-, or 2000-mg as 500-mg DS107G capsules or matching placebo capsules) in parallel on study Day 1 after at least an 8-hour fast, according to Table 20. Cohort 4 was initiated following the review of safety data from Cohort 3 by the SMC.

[2] = tested on: spontaneous hypertensive rats; experiment: Arterial pressure in spontaneous hypertensive rats after seven days of gavage, with intravenous phenylephrine challenge; type: in vivo, rat
Procedure: An in vivo investigation of anti-hypertension efficacy following co-administration of DGLA and aspirin in spontaneous hypertensive rats was conducted. This experiment investigated the efficacy of DGLA when co-administered chronically with aspirin to reduce the hypertensive response induced acutely by phenylephrine in spontaneous hypertensive rats. Spontaneously hypertensive adult male rats (250-300 g), bred by Charles River Laboratories, were used for this assay. […] The animals were pair-housed by group (low dose+aspirin, high dose+aspirin or aspirin alone) for the duration of the oral gavage prior to surgery.
The test article was formulated using olive oil as the vehicle. This stock solution was then administered by oral gavage once per day for seven consecutive days. A low and a high dose (50 mg/kg and 500 mg/kg) were tested.
A 5 mg/ml stock solution of aspirin was prepared by dissolving the appropriate amount of aspirin in 100% DMSO which was then diluted in water. The concentration of DMSO was less than 1%. The appropriate volume was administered by oral gavage to each animal once per day for seven consecutive days. The stock solution was stored at room temperature and was considered stable for the duration of the gavage.
The appropriate volume was administered to each animal by an intravenous injection at the end of the experiment on the surgery day. The stock solution was stored at 4° C. and was considered stable for the duration of the experiment.
Male spontaneous hypertensive rats weighing approximately 300 g arrived at the facility at least two days before beginning the oral gavage. Animals were assigned to one of three groups (low dose+aspirin, high dose+aspirin, and aspirin), and were pair-housed during the acclimation period. […]
Rats were anesthetized with a 2.5-3.0% isoflurane-O2 mixture in an induction box. […] Blood pressure, systemic arterial pressure (SAP), and heart rate were monitored continuously for a total of half an hour. Hypertension was detected as an increase in diastolic, systolic or mean blood pressure. […]

CCCCC[C@H](O)/C=C/C=C\C/C=C\CCCCCCC(=O)O [Batch 15-HETrE, 15-Hydroxyeicosatrienoic acid]
Free 15-HETrE plasma concentration [1]: < 100 ng/mL

COc1ccccc1OCCNCC(O)COc1cccc2[nH]c3ccccc3c12 (stereo not drawn) [Carvedilol, carvedilol]
Effect on mean systemic arterial pressure when added after phenylephrine ([2]; 0.1 mg/kg i.v., aspirin-fed rats): significant decrease

CC(=O)Oc1ccccc1C(=O)O [Aspirin, aspirin]
Mean arterial pressure, Average SAP ([2]; Aspirin gavage 7 days, phenylephrine 20 μg/kg iv): 174.3
